Experimental data taken from patent publication US9708306B2, “Benzimidazole derivatives and preparation process and pharmaceutical uses thereof” (WUHAN LL SCIENCE AND TECHNOLOGY DEVELOPMENT CO., LTD, priority 2015, dated 2017).
Like-named read-outs stand apart in the source and are kept apart here.

How the values were obtained:
[1] = test system: renovascular hypertensive rats; test: Effect on reducing blood pressure of renovascular hypertensive rats by single oral administration; format: in vivo, Wistar rats; conditions: for change in vivo at 0.5 mg/kg / inhibition in vivo at 0.5 mg/kg / change in vivo at 1 mg/kg / inhibition in vivo at 1 mg/kg / change in vivo at 2 mg/kg / inhibition in vivo at 2 mg/kg: Rattus norvegicus, single oral administration; for change in vivo at 0.5 mg/kg / change in vivo at 1 mg/kg / change in vivo at 2 mg/kg: RHR, read-out: Variations on heart rate; for inhibition in vivo at 0.5 mg/kg / inhibition in vivo at 1 mg/kg / inhibition in vivo at 2 mg/kg: two-kidney one-clip RHR, measured 1-10 h, read-out: Maximum blood pressure reduction; for blood pressure reduction effect compared with Azilsartan medoxomil / blood pressure reduction at 24 hours after the administration / lasting time of the blood pressure reduction effect compared with Azilsartan medoxomil: renal artery-ligated rat; for blood pressure reduction effect compared with Azilsartan medoxomil / lasting time of the blood pressure reduction effect compared with Azilsartan medoxomil: result in words; for blood pressure reduction at 24 hours after the administration: dose not stated
[2] = test system: spontaneously hypertensive rats (SHR); test: Effect on reducing blood pressure of spontaneously hypertensive rats (SHR) by multiple oral administrations; format: in vivo; conditions: for blood pressure reduction effect compared with Azilsartan medoxomil / reduction effects on the heart rate of SHR rats: result in words; for reduction effects on the heart rate of SHR rats: during the whole administration
normal rats = test: Effect on blood pressure of normal rats by single oral administration; format: in vivo, Wistar rats; conditions: Rattus norvegicus, po, single, normal rats; for inhibition in vivo at 0.5 mg/kg / inhibition in vivo at 1 mg/kg / inhibition in vivo at 2 mg/kg: 8 h, read-out: blood pressure reduction at 8 h after the administration; for inhibition in vivo at 0.5 mg/kg / change in vivo at 0.5 mg/kg: 0.5 mg/kg p.o.; for inhibition in vivo at 1 mg/kg / change in vivo at 1 mg/kg: 1.0 mg/kg p.o.; for inhibition in vivo at 2 mg/kg / change in vivo at 2 mg/kg: 2.0 mg/kg p.o.; for change in vivo at 0.5 mg/kg / change in vivo at 1 mg/kg / change in vivo at 2 mg/kg: read-out: variations on heart rate
[3] = Rattus norvegicus, 0.5 mg/kg oral once per day, SHR, 1 hour after the administration, read-out: Maximum blood pressure reduction, 1st-day administration
[4] = Rattus norvegicus, 0.5 mg/kg oral once per day, SHR, 1 hour after the administration, read-out: Maximum blood pressure reduction, 7th-day administration
[5] = Rattus norvegicus, 0.5 mg/kg oral once per day, SHR, 1 hour after the administration, read-out: Maximum blood pressure reduction, 14th-day administration
[6] = Rattus norvegicus, 1.0 mg/kg oral once per day, SHR, 1 hour after the administration, read-out: Maximum blood pressure reduction, 1st-day administration
[7] = Rattus norvegicus, 1.0 mg/kg oral once per day, SHR, 1 hour after the administration, read-out: Maximum blood pressure reduction, 7th-day administration
[8] = Rattus norvegicus, 1.0 mg/kg oral once per day, SHR, 1 hour after the administration, read-out: Maximum blood pressure reduction, 14th-day administration
[9] = Rattus norvegicus, 2.0 mg/kg oral once per day, SHR, 1 hour after the administration, read-out: Maximum blood pressure reduction, 1st-day administration
[10] = Rattus norvegicus, 2.0 mg/kg oral once per day, SHR, 1 hour after the administration, read-out: Maximum blood pressure reduction, 7th-day administration
[11] = Rattus norvegicus, 2.0 mg/kg oral once per day, SHR, 1 hour after the administration, read-out: Maximum blood pressure reduction, 14th-day administration
[12] = Rattus norvegicus, 1.0 mg/kg oral, SHR, read-out: Heart Rate (effect on reducing heart rate)
[13] = Rattus norvegicus, 2.0 mg/kg oral, SHR, read-out: Heart Rate (effect on reducing heart rate)

SMILES | change in vivo at 0.5 mg/kg [1] [%] | inhibition in vivo at 0.5 mg/kg [1] [%] | change in vivo at 1 mg/kg [1] [%] | inhibition in vivo at 1 mg/kg [1] [%] | change in vivo at 2 mg/kg [1] [%] | inhibition in vivo at 2 mg/kg [1] [%] | blood pressure reduction effect compared with Azilsartan medoxomil [1] | inhibition in vivo at 0.5 mg/kg [2, 3] [%] | inhibition in vivo at 0.5 mg/kg [2, 4] [%] | inhibition in vivo at 0.5 mg/kg [2, 5] [%] | inhibition in vivo at 1 mg/kg [2, 6] [%] | inhibition in vivo at 1 mg/kg [2, 7] [%] | inhibition in vivo at 1 mg/kg [2, 8] [%] | inhibition in vivo at 2 mg/kg [2, 9] [%] | inhibition in vivo at 2 mg/kg [2, 10] [%] | inhibition in vivo at 2 mg/kg [2, 11] [%] | inhibition in vivo at 0.5 mg/kg (normal rats) [%] | inhibition in vivo at 1 mg/kg (normal rats) [%] | inhibition in vivo at 2 mg/kg (normal rats) [%] | change in vivo at 0.5 mg/kg (normal rats) [%] | other results
CCOc1nc2cccc(C(=O)OC(C)OC(=O)OC(C)C)c2n1Cc1ccc(-c2ccccc2-c2noc(=O)[nH]2)cc1 (centres unmarked) [QR01003] | 2 | 15 ± 1.8 | -3 ± 2 | 28 ± 2.9 | -5 ± 2 | 36 ± 4.3 | close to that of Azilsartan medoxomil | 18 ± 4.6 | 21 ± 6.3 | 17 ± 6.8 | 31 ± 6.8 | 35 ± 7.3 | 36 ± 8.1 | 39 ± 5 | 41 ± 5.7 | 44 ± 6.1 | 5.6 ± 3.1 | 5.4 ± 1.9 | 6.4 ± 3.4 | -2 ± 2 | change in vivo at 1 mg/kg (normal rats): 4%; change in vivo at 2 mg/kg (normal rats): -3 ± 4%
CCOc1nc2cccc(C(=O)OCOC(=O)C(C)(C)C)c2n1Cc1ccc(-c2ccccc2-c2noc(=O)[nH]2)cc1 [QR01005] | -10 ± 3 | 16 ± 3.2 | -21 ± 6 | 36 ± 3.1 | -25 ± 6 | 43 ± 3.5 | obviously superior to that of the Azilsartan medoxomil positive drug | 16 ± 4.8 | 18 ± 5.2 | 21 ± 3.9 | 38 ± 3.7 | 40 ± 6.2 | 42 ± 6.1 | 45 ± 4.8 | 41 ± 6.2 | 45 ± 7.2 | 6.3 ± 1.3 | 3.6 ± 2.1 | 4.8 ± 2.3 | -3 ± 1 | blood pressure reduction at 24 hours after the administration [1]: 21%; lasting time of the blood pressure reduction effect compared with Azilsartan medoxomil [1]: close to that of Azilsartan medoxomil; inhibition in vivo at 1 mg/kg [2, 12]: 23 ± 6%; inhibition in vivo at 2 mg/kg [2, 13]: 21 ± 4%; inhibition in vivo at 5 mg/kg ([2]; Rattus norvegicus, 5 mg/kg oral, SHR, read-out: Heart Rate (effect on reducing heart rate)): 18 ± 5%; blood pressure reduction effect compared with Azilsartan medoxomil ([2]; SHR): obviously superior to that of the Azilsartan medoxomil positive drug; reduction effects on the heart rate of SHR rats [2]: significant reduction effects on the heart rate; change in vivo at 1 mg/kg (normal rats): -6 ± 6%; change in vivo at 2 mg/kg (normal rats): 8%
CCOc1nc2cccc(C(=O)OCc3c(-c4ccccc4)no[n+]3[O-])c2n1Cc1ccc(-c2ccccc2-c2noc(=O)[nH]2)cc1 [QR01009] | -12 ± 4 | 22 ± 2.8 | -25 ± 5 | 36 ± 3.2 | -28 ± 8 | 43 ± 6.7 | obviously superior to that of the Azilsartan medoxomil positive drug | 24 ± 6.8 | 28 ± 5.3 | 25 ± 4.9 | 42 ± 6.3 | 41 ± 5.9 | 45 ± 6.7 | 45 ± 5.6 | 48 ± 4.6 | 43 ± 7.2 | 3.1 ± 2.4 | 5.6 ± 1.9 | 4.8 ± 5.8 | -5 ± 2 | blood pressure reduction at 24 hours after the administration [1]: 25%; lasting time of the blood pressure reduction effect compared with Azilsartan medoxomil [1]: close to that of Azilsartan medoxomil; inhibition in vivo at 0.5 mg/kg ([2]; Rattus norvegicus, 0.5 mg/kg oral, SHR, read-out: Heart Rate (effect on reducing heart rate)): 23 ± 3%; inhibition in vivo at 1 mg/kg [2, 12]: 24 ± 2%; inhibition in vivo at 2 mg/kg [2, 13]: 27 ± 5%; blood pressure reduction effect compared with Azilsartan medoxomil ([2]; SHR): obviously superior to that of the Azilsartan medoxomil positive drug; reduction effects on the heart rate of SHR rats [2]: significant reduction effects on the heart rate; change in vivo at 1 mg/kg (normal rats): 4%; change in vivo at 2 mg/kg (normal rats): -8 ± 5%
